Assays:
[1] = system: HCV replicon in human hepatoma Huh-7 cell line; test: Anti-HCV replicon assay (EC50, luciferase); type: cell-based; details: Hepatitis C virus, Huh-7, 72 h
In short: (§1)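 Huh-7 cells carrying an HCV replicon (6000/well) exposed to 3-fold serial compound dilutions for 3 days at 37 °C, final DMSO 0.5% where used. EC50 read as replicon luciferase luminescence after cell lysis; CC50 from CellTiter-Glo luminescence after 10 min at room temperature.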

[2] = CC50 assay (CellTiter-Glo) in Huh-7 HCV replicon cells; type: cell-based, human; details: human, 3 days incubation, CellTiter-Glo readout
In short: as §1

SMILES	EC50 [1] [nM]	CC50 at 3 days [2] [µM]
CCOc1nc(NCc2ccc(F)cc2)nc2ccc(-c3ccc(C(=O)NC(C)(C)CN4CCOCC4)cc3)nc12 [Example 103, N-(1,1-Dimethyl-2-morpholin-4-yl-ethyl)-4-[4-ethoxy-2-(4-fluoro-benzylamino)-pyrido[3,2-d]pyrimidin-6-yl]-benzamide]	< 100	< 5
CCOc1nc(NCc2ccc(F)cc2)nc2ccc(-c3ccc(N4CCCC4=O)cc3)nc12 [Example 104, 1-{4-[4-Ethoxy-2-(4-fluoro-benzylamino)-pyrido[3,2-d]pyrimidin-6-yl]-phenyl}-pyrrolidin-2-one]	< 100	5 to 25
CCOc1nc(NCc2ccc(F)cc2)nc2ccc(-c3ccc(NC(=O)C(C)(C)N)cc3)nc12 [Example 105, 2-Amino-N-{4-[4-ethoxy-2-(4-fluoro-benzylamino)-pyrido[3,2-d]pyrimidin-6-yl]-phenyl}-2-methyl-propionamide]	< 100	< 5
CCOc1nc(NCc2ccc(F)cc2F)nc2ccc(-c3ccc(C(=O)NC4CC4)cc3)nc12 [Example 107, N-Cyclopropyl-4-[2-(2,4-difluoro-benzylamino)-4-ethoxy-pyrido[3,2-d]pyrimidin-6-yl]-benzamide]	< 100	5 to 25
CCOc1nc(NCc2ccc(F)cc2F)nc2ccc(-c3ccc(F)cc3)nc12 [Example 108, (2,4-Difluoro-benzyl)-{4-ethoxy-6-(4-fluoro-phenyl)-pyrido[3,2-d]pyrimidin-2-yl]-amine]	< 100	5 to 25
CCOc1nc(NCc2ccc(S(N)(=O)=O)cc2)nc2ccc(-c3ccc(F)cc3)nc12 [Example 109, 4-{[4-ethoxy-6-(4-fluoro-phenyl)-pyrido[3,2-d]pyrimidin-2-ylamino]-methyl}-benzenesulfonamide]	< 100	5 to 25
NS(=O)(=O)c1ccc(CNc2nc(OC3CCCC3)c3nc(-c4ccc(F)cc4)ccc3n2)cc1 [Example 110, 4-{[4-Cyclopentyloxy-6-(4-fluoro-phenyl)-pyrido[3,2-d]pyrimidin-2-ylamino]-methyl}-benzenesulfonamide]	< 100	5 to 25
NS(=O)(=O)c1ccc(CNc2nc(OC3CCC3)c3nc(-c4ccc(F)cc4)ccc3n2)cc1 [Example 111, 4-{[4-Cyclobutoxy-6-(4-fluoro-phenyl)-pyrido[3,2-d]pyrimidin-2-ylamino]-methyl}-benzenesulfonamide]	< 100	5 to 25
CCCc1nc(NCc2ccc(S(N)(=O)=O)cc2)nc2ccc(-c3ccc(F)cc3)nc12 [Example 112, 4-{[6-(4-Fluoro-phenyl)-4-propyl-pyrido[3,2-d]pyrimidin-2-ylamino]-methyl}-benzenesulfonamide]	< 100	< 5
CCOc1nc(N[C@H](C)c2ccccc2)nc2ccc(-c3ccc(F)cc3)nc12 [Example 113, [4-Ethoxy-6-(4-fluoro-phenyl)-pyrido[3,2-d]pyrimidin-2-yl]-(1-phenyl-ethyl)-amine]	< 100	> 25
CCOc1nc(NCc2nccs2)nc2ccc(-c3ccc(F)cc3)nc12 [Example 114, [4-Ethoxy-6-(4-fluoro-phenyl)-pyrido[3,2-d]pyrimidin-2-yl]-thiazol-2-ylmethyl-amine]	< 100	5 to 25
CCOc1nc(NCc2cocn2)nc2ccc(-c3ccc(F)cc3)nc12 [Example 115, [4-Ethoxy-6-(4-fluoro-phenyl)-pyrido[3,2-d]pyrimidin-2-yl]-oxazol-4-ylmethyl-amine]	< 100	5 to 25
CCOc1nc(NCc2ccon2)nc2ccc(-c3ccc(F)cc3)nc12 [Example 116, [4-Ethoxy-6-(4-fluoro-phenyl)-pyrido[3,2-d]pyrimidin-2-yl]-isoxazol-3-ylmethyl-amine]	< 100	> 25
CCOc1nc(NCc2ccc(CS(=O)(=O)NC(C)C)cc2)nc2ccc(-c3ccc(F)cc3)nc12 [Example 117, C-(4-{[4-Ethoxy-6-(4-fluoro-phenyl)-pyrido[3,2-d]pyrimidin-2-ylamino]-methyl}-phenyl)-N-isopropyl-methanesulfonamide]	< 100	5 to 25
CCOc1nc(NCCc2ccccc2)nc2ccc(-c3ccc(F)cc3)nc12 [Example 118, [4-Ethoxy-6-(4-fluoro-phenyl)-pyrido[3,2-d]pyrimidin-2-yl]-phenethyl-amine]	< 100	5 to 25
CCOc1nc(NCc2ccc(S(C)(=O)=O)cc2)nc2ccc(-c3ccc(F)cc3)nc12 [Example 119, [4-Ethoxy-6-(4-fluoro-phenyl)-pyrido[3,2-d]pyrimidin-2-yl]-(4-methanesulfonyl-benzyl)-amine]	< 100	< 5

SMILES	EC50 [1] [nM]	CC50 at 3 days [2] [µM]
CCOc1nc(NCc2ccc(S(N)(=O)=O)cc2)nc2ccc(-c3ccc(NC(=O)[C@H]4CCNC4)c(F)c3)nc12 [Example 120, (S)-4-{[4-Ethoxy-6-(3-fluoro-4-(pyrrolidine-3-carboxamido)-phenyl)-pyrido[3,2-d]pyrimidin-2-ylamino]-methyl}-benzenesulfonamide]	< 100	5 to 25
CCOc1nc(NCc2ccc(S(N)(=O)=O)cc2)nc2ccc(-c3ccc(NC(=O)[C@H]4CCNC4)cc3)nc12 [Example 121, (S)-4-{[4-Ethoxy-6-(4-(pyrrolidine-3-carboxamido)-phenyl)-pyrido[3,2-d]pyrimidin-2-ylamino]-methyl}-benzenesulfonamide]	< 100	> 25
CCOc1nc(NCc2ccc(S(N)(=O)=O)cc2)nc2ccc(-c3ccc(N4CCC(O)C4=O)cc3)nc12 (stereo not shown) [Example 122, 4-{[4-Ethoxy-6-(4-(3-hydroxy-2-oxopyrrolidin-1-yl)-phenyl)-pyrido[3,2-d]pyrimidin-2-ylamino]-methyl}-benzenesulfonamide]	< 100	> 25
CCOc1nc(NCc2ccc(S(N)(=O)=O)cc2)nc2ccc(-c3ccc(NC(=O)NCCN4CCOCC4)cc3)nc12 [Example 123, 4-{[4-Ethoxy-6-(4-(3-(2-(morpholin-4-yl)ethyl)ureido)-phenyl)-pyrido[3,2-d]pyrimidin-2-ylamino]-methyl}-benzenesulfonamide]	< 100	5 to 25
CCOc1nc(NCc2ccc(S(N)(=O)=O)cc2)nc2ccc(-c3ccc(NC(=O)NCCN4CCCC4)cc3)nc12 [Example 124, 4-{[4-Ethoxy-6-(4-(3-(2-(pyrrolidin-1-yl)ethyl)ureido)-phenyl)-pyrido[3,2-d]pyrimidin-2-ylamino]-methyl}-benzenesulfonamide]	< 100	5 to 25
CCOc1nc(NCc2ccc(S(N)(=O)=O)cc2)nc2ccc(-c3ccc(NC(=O)OCCN4CCCC4)cc3)nc12 [Example 125]	< 100	< 5
CCOc1nc(NCc2ccc(S(N)(=O)=O)cc2)nc2ccc(-c3cnc(N)s3)nc12 [Example 126, 4-{[4-Ethoxy-6-(2-aminothiazole-5-yl)-pyrido[3,2-d]pyrimidin-2-ylamino]-methyl}-benzenesulfonamide]	< 100	< 5
CCOc1nc(NCc2ccc(S(N)(=O)=O)cc2)nc2ccc(-c3ccc(F)c(Cl)c3)nc12 [Example 127, 4-{[4-Ethoxy-6-(3-chloro-4-fluorophenyl)-pyrido[3,2-d]pyrimidin-2-ylamino]-methyl}-benzenesulfonamide]	< 100	< 5
CCOc1nc(NCc2ccc(S(N)(=O)=O)cc2)nc2ccc(-c3ccc(NC(=O)N4CCOCC4)cc3)nc12 [Example 128, 4-{[4-Ethoxy-6-(4-(morpholine-4-carboxamido)-phenyl)-pyrido[3,2-d]pyrimidin-2-ylamino]-methyl}-benzenesulfonamide]	< 100	5 to 25
CCOc1nc(NCc2ccc(S(N)(=O)=O)cc2)nc2ccc(-c3ccc(NC(=O)N4CCCC4)cc3)nc12 [Example 129, 4-{[4-Ethoxy-6-(4-(pyrrolidine-1-carboxamido)-phenyl)-pyrido[3,2-d]pyrimidin-2-ylamino]-methyl}-benzenesulfonamide]	< 100	> 25
CCOc1nc(NCc2ccc(S(N)(=O)=O)cc2)nc2ccc(-c3ccc(NC(N)=O)cc3)nc12 [Example 130, 4-{[4-Ethoxy-6-(4-ureidophenyl)-pyrido[3,2-d]pyrimidin-2-ylamino]-methyl}-benzenesulfonamide]	< 100	5 to 25
CCOc1nc(NCc2ccc(S(N)(=O)=O)cc2)nc2ccc(-c3ccc(NC(=O)NC4CC4)cc3)nc12 [Example 131, 4-{[4-Ethoxy-6-(4-(3-cyclopropylureido)-phenyl)-pyrido[3,2-d]pyrimidin-2-ylamino]-methyl}-benzenesulfonamide]	< 100	5 to 25
CCOc1nc(NCc2ccc(S(N)(=O)=O)cc2)nc2ccc(-c3cccc(NS(=O)(=O)N(C)C)c3)nc12 [Example 132]	< 100	< 5
CCOc1nc(NCc2ccc(S(N)(=O)=O)cc2)nc2ccc(-c3cccc(S(N)(=O)=O)c3)nc12 [Example 133, 4-{[4-Ethoxy-6-(3-(aminosulfonyl)-phenyl)-pyrido[3,2-d]pyrimidin-2-ylamino]-methyl}-benzenesulfonamide]	< 100	5 to 25
CCOc1nc(NCc2ccc(S(N)(=O)=O)cc2)nc2ccc(-c3ccc(S(N)(=O)=O)cc3)nc12 [Example 134, 4-{[4-Ethoxy-6-(4-(aminosulfonyl)-phenyl)-pyrido[3,2-d]pyrimidin-2-ylamino]-methyl}-benzenesulfonamide]	< 100	5 to 25
CCOc1nc(NCc2ccc(S(N)(=O)=O)cc2)nc2ccc(-c3ccc(NC(=O)C(C)(C)N)cc3)nc12 [Example 135, 4-{[4-Ethoxy-6-(4-((2-amino-2-propyl)-carboxamido)-phenyl)-pyrido[3,2-d]pyrimidin-2-ylamino]-methyl}-benzenesulfonamide]	< 100	< 5

From patent publication US8729089B2 (Gilead Sciences, Inc., priority 2006, dated 2014)
